In PubChem BioAssay AID2060893 (Molecular Pharmacology Branch, DTP, NCI, 2025):

Tested on: K86415-001-R-J1-PDC complex spheroids, viability
Assay: Anticancer human tumor K86415-001-R-J1-PDC patient-derived lung adenocarcinoma cell line growth inhibition [RAS]
Conditions: for IC50: curve of first compound; for viability, T/C: stronger effect = lower value
Outline: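 Multi-cell-type spheroids: tumor cells plus HUVEC endothelial cells and mesenchymal stem cells. RAS-pathway inhibitors were combined with targeted agents, each dosed in half-log steps down from clinical Cmax, or from 10 microM when Cmax was unknown.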

[1] = second compound 0.000949 µM, first compound 0.0316 µM
[2] = second compound 0.000949 µM, first compound 0.1 µM
[3] = second compound 0.000949 µM, first compound 0.316 µM
[4] = second compound 0.000949 µM, first compound 1 µM
[5] = second compound 0.003 µM, first compound 0.0316 µM
[6] = second compound 0.003 µM, first compound 0.1 µM
[7] = second compound 0.003 µM, first compound 0.316 µM
[8] = second compound 0.003 µM, first compound 1 µM
[9] = second compound 0.00949 µM, first compound 0.0316 µM
[10] = second compound 0.00949 µM, first compound 0.1 µM
[11] = second compound 0.00949 µM, first compound 0.316 µM
[12] = second compound 0.00949 µM, first compound 1 µM
[13] = second compound 0.03 µM, first compound 0.0316 µM
[14] = second compound 0.03 µM, first compound 0.1 µM
[15] = second compound 0.03 µM, first compound 0.316 µM
[16] = second compound 0.03 µM, first compound 1 µM
[17] = second compound 0.0949 µM, first compound 0.0316 µM
[18] = second compound 0.0949 µM, first compound 0.1 µM
[19] = second compound 0.0949 µM, first compound 0.316 µM
[20] = second compound 0.0949 µM, first compound 1 µM
[21] = second compound 0.3 µM, first compound 0.0316 µM
[22] = second compound 0.3 µM, first compound 0.1 µM
[23] = second compound 0.3 µM, first compound 0.316 µM
[24] = second compound 0.3 µM, first compound 1 µM
[25] = second compound 0.000949 µM, first compound 3.16 µM
[26] = second compound 0.000949 µM, first compound 10 µM
[27] = second compound 0.003 µM, first compound 3.16 µM
[28] = second compound 0.003 µM, first compound 10 µM
[29] = second compound 0.00949 µM, first compound 3.16 µM
[30] = second compound 0.00949 µM, first compound 10 µM
[31] = second compound 0.03 µM, first compound 3.16 µM
[32] = second compound 0.03 µM, first compound 10 µM
[33] = second compound 0.0949 µM, first compound 3.16 µM
[34] = second compound 0.0949 µM, first compound 10 µM
[35] = second compound 0.3 µM, first compound 3.16 µM
[36] = second compound 0.3 µM, first compound 10 µM
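Note: spheroids exposed to agents for seven days before readout.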

## CCN1CCN(Cc2ccc(Nc3ncc(F)c(-c4cc(F)c5nc(C)n(C(C)C)c5c4)n3)nc2)CC1 + CCn1c(-c2cc(N3CCN(C)CC3)cnc2C(C)OC)c2c3cc(ccc31)-c1csc(n1)CC(NC(=O)C1CC1C)C(=O)N1CCCC(N1)C(=O)OCC(C)(C)C2
Second compound 0.000949 µM
  IC50: < 3.16 nM
Second compound 0.003 µM
  IC50: < 3.16 nM
Second compound 0.00949 µM
  IC50: < 3.16 nM
Second compound 0.03 µM
  IC50: < 3.16 nM
Second compound 0.0949 µM
  IC50: < 3.16 nM
Second compound 0.3 µM
  IC50: < 3.16 nM
Second compound 0.000949 µM, first compound 0.00316 µM
  viability, T/C: 47.9%
Second compound 0.000949 µM, first compound 0.01 µM
  viability, T/C: 40.1%
[1]
  viability, T/C: 34.3%
[2]
  viability, T/C: 34.2%
[3]
  viability, T/C: 35.9%
[4]
  viability, T/C: 40.8%
Second compound 0.003 µM, first compound 0.00316 µM
  viability, T/C: 21.5%
Second compound 0.003 µM, first compound 0.01 µM
  viability, T/C: 17.4%
[5]
  viability, T/C: 17.5%
[6]
  viability, T/C: 19.1%
[7]
  viability, T/C: 26.6%
[8]
  viability, T/C: 23.5%
Second compound 0.00949 µM, first compound 0.00316 µM
  viability, T/C: 12.5%
Second compound 0.00949 µM, first compound 0.01 µM
  viability, T/C: 10.9%
[9]
  viability, T/C: 10.3%
[10]
  viability, T/C: 11.9%
[11]
  viability, T/C: 10.6%
[12]
  viability, T/C: 8.22%
Second compound 0.03 µM, first compound 0.00316 µM
  viability, T/C: 5.68%
Second compound 0.03 µM, first compound 0.01 µM
  viability, T/C: 6.29%
[13]
  viability, T/C: 3.09%
[14]
  viability, T/C: 5.81%
[15]
  viability, T/C: 4.33%
[16]
  viability, T/C: 3.19%
Second compound 0.0949 µM, first compound 0.00316 µM
  viability, T/C: 3.17%
Second compound 0.0949 µM, first compound 0.01 µM
  viability, T/C: 3.79%
[17]
  viability, T/C: 3.86%
[18]
  viability, T/C: 3.09%
[19]
  viability, T/C: 2.31%
[20]
  viability, T/C: 1.64%
Second compound 0.3 µM, first compound 0.00316 µM
  viability, T/C: 2.92%
Second compound 0.3 µM, first compound 0.01 µM
  viability, T/C: 3.03%
[21]
  viability, T/C: 2.27%
[22]
  viability, T/C: 1.73%
[23]
  viability, T/C: 1.63%
[24]
  viability, T/C: 1.66%

## Cc1nc(N2CCC3(CC2)COC(C)C3N)c(CO)nc1Sc1ccnc(N)c1Cl (stereo unspecified) + CCn1c(-c2cc(N3CCN(C)CC3)cnc2C(C)OC)c2c3cc(ccc31)-c1csc(n1)CC(NC(=O)C1CC1C)C(=O)N1CCCC(N1)C(=O)OCC(C)(C)C2
Second compound 0.000949 µM
  IC50: < 31.6 nM
Second compound 0.003 µM
  IC50: < 31.6 nM
Second compound 0.00949 µM
  IC50: < 31.6 nM
Second compound 0.03 µM
  IC50: < 31.6 nM
Second compound 0.0949 µM
  IC50: < 31.6 nM
Second compound 0.3 µM
  IC50: < 31.6 nM
[1]
  viability, T/C: 35.8%
[2]
  viability, T/C: 20.5%
[3]
  viability, T/C: 9.55%
[4]
  viability, T/C: 10.9%
[25]
  viability, T/C: 7.52%
[26]
  viability, T/C: 7.71%
[5]
  viability, T/C: 15.5%
[6]
  viability, T/C: 11.7%
[7]
  viability, T/C: 7.5%
[8]
  viability, T/C: 6.79%
[27]
  viability, T/C: 4.71%
[28]
  viability, T/C: 4.41%
[9]
  viability, T/C: 10.5%
[10]
  viability, T/C: 6.46%
[11]
  viability, T/C: 5.74%
[12]
  viability, T/C: 4.02%
[29]
  viability, T/C: 3.99%
[30]
  viability, T/C: 4.11%
[13]
  viability, T/C: 5.58%
[14]
  viability, T/C: 3.68%
[15]
  viability, T/C: 4.39%
[16]
  viability, T/C: 3.48%
[31]
  viability, T/C: 3.37%
[32]
  viability, T/C: 3.97%
[17]
  viability, T/C: 3.82%
[18]
  viability, T/C: 3.07%
[19]
  viability, T/C: 3.2%
[20]
  viability, T/C: 3.97%
[33]
  viability, T/C: 3.81%
[34]
  viability, T/C: 3.34%
[21]
  viability, T/C: 2.66%
[22]
  viability, T/C: 3.52%
[23]
  viability, T/C: 3.88%
[24]
  viability, T/C: 3.34%
[35]
  viability, T/C: 4.46%
[36]
  viability, T/C: 2.74%

## NC1c2ccccc2OC12CCN(c1cnc3c(N4CCCc5ncccc54)n[nH]c3n1)CC2 (stereo unspecified) + CCn1c(-c2cc(N3CCN(C)CC3)cnc2C(C)OC)c2c3cc(ccc31)-c1csc(n1)CC(NC(=O)C1CC1C)C(=O)N1CCCC(N1)C(=O)OCC(C)(C)C2
Second compound 0.000949 µM
  IC50: < 31.6 nM
Second compound 0.003 µM
  IC50: < 31.6 nM
Second compound 0.00949 µM
  IC50: < 31.6 nM
Second compound 0.03 µM
  IC50: < 31.6 nM
Second compound 0.0949 µM
  IC50: < 31.6 nM
Second compound 0.3 µM
  IC50: < 31.6 nM
[1]
  viability, T/C: 17.9%
[2]
  viability, T/C: 13.2%
[3]
  viability, T/C: 7.58%
[4]
  viability, T/C: 9.76%
[25]
  viability, T/C: 9.06%
[26]
  viability, T/C: 7.7%
[5]
  viability, T/C: 9.27%
[6]
  viability, T/C: 8.67%
[7]
  viability, T/C: 6.53%
[8]
  viability, T/C: 6.35%
[27]
  viability, T/C: 4.86%
[28]
  viability, T/C: 5.29%
[9]
  viability, T/C: 7.91%
[10]
  viability, T/C: 5.02%
[11]
  viability, T/C: 5.89%
[12]
  viability, T/C: 4.63%
[29]
  viability, T/C: 5.75%
[30]
  viability, T/C: 4.91%
[13]
  viability, T/C: 5.17%
[14]
  viability, T/C: 4.43%
[15]
  viability, T/C: 5.11%
[16]
  viability, T/C: 5.46%
[31]
  viability, T/C: 3.67%
[32]
  viability, T/C: 5.21%
[17]
  viability, T/C: 3.52%
[18]
  viability, T/C: 4.51%
[19]
  viability, T/C: 4.52%
[20]
  viability, T/C: 3.8%
[33]
  viability, T/C: 3.7%
[34]
  viability, T/C: 4.75%
[21]
  viability, T/C: 4.69%
[22]
  viability, T/C: 4.26%
[23]
  viability, T/C: 4.59%
[24]
  viability, T/C: 3.96%
[35]
  viability, T/C: 4.65%
[36]
  viability, T/C: 4.77%
